Consider one compound from ChEMBL document CHEMBL1135202, “Design, synthesis and evaluation of 4-imidazolylflavans as new leads for aromatase inhibition” (Bioorg Med Chem Lett, 2002).

Common to all, as to set-up: species or system Placenta
Data set [1] has as its target T1, Aromatase (Homo sapiens, UniProt P11511).
T1 sequence (P11511 whole entry): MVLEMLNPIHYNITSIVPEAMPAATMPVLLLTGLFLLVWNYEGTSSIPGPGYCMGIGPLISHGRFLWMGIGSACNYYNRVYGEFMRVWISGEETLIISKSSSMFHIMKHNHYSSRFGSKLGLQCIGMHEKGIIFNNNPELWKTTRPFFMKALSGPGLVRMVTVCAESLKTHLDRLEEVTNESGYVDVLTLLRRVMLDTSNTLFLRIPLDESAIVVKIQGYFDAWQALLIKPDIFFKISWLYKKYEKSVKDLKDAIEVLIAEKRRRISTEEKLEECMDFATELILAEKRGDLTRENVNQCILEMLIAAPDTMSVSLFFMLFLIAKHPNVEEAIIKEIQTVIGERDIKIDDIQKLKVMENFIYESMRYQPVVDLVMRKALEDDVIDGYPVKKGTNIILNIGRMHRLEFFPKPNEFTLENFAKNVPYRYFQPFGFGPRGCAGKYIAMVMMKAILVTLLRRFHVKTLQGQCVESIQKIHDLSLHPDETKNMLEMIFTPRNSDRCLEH
Kind of data set: Inhibition of aromatase activity in human placental microsomes.

The target in data set [2] is T1, Aromatase. Kind of data set: Relative potency for aromatase inhibition in human placental microsomes compared to aminoglutethimide.
Data set [3] has as its target T1, Aromatase. Kind of data set: Relative potency for aromatase inhibition in human placental microsomes compared to flavanone.

Turning to `Oc1ccc2c(c1)OC(c1ccccc1)CC2n1ccnc1` (stereo not drawn), inhibition on Aromatase [1] was half-maximal at 41 nM (IC50). Moreover, the Relative potency at Aromatase [2] was 127; at Aromatase [3] it was 93.

One may read the IC50 as the concentration that inhibits the measured activity by half. Higher therefore signals lower potency.
